In patent publication US20230157993A1, “PHARMACEUTICAL COMPOSITION FOR TREATING OR PREVENTING ALOPECIA INCLUDING DECURSIN” (University-Industry Cooperation Group of Kyung Hee …, priority 2021, published 2023):

Legend:
[1] = system: ERK; assay: Expression of ERK in decursin-treated keratinocytes; assay type: cell-based, Human; conditions: TNF-α
[2] = system: caspase-8; assay: Immunoblotting of caspase-8 in TNF-α-stimulated HaCaT keratinocytes; assay type: cell-based, Human; conditions: HaCaT cells; 10 nM decursin; 100 ng/mL TNF-α, 24 hours; FIG. 5
Protocol: (§1) Human keratinocyte HaCaT cells were grown at 37° C. under atmosphere with 95% humidity in the presence of 5% CO2, in Dulbecco's modified Eagle's medium (DMEM, Gibco; Thermo Fisher Scientific, Inc., Waltham, Mass., USA) supplemented with 10% v/v fetal bovine serum (FBS, Gibco), 2 mM glutamine, 100 IU/ml penicillin, and 100 μg/mL of streptomycin (Gibco). HaCaT cells were dispensed into 6-well plates by 1×10^6 cells/wells. After stabilization, 1 μM DEX and 0.1, 1, and 10 nM decursin were treated in the presence of 100 ng/mL of TNF-α for 24 hours.
(§2) Proteins were extracted from the collected skin tissues and HaCaT cells using RIPA lysis buffer (Tech & Innovation, Gangwon, Korea) containing a protease inhibitor cocktail (Roche, Hoffmann, USA). Lysates were quantified by the Bradford method and denatured with dodecyl sulfate buffer at 98° C. for 5 minutes. Proteins were electrophoresed onto a polyvinylidene fluoride membrane. The membranes were incubated continuously with primary anti-caspase-3, -7, and -8, followed with secondary HRP-conjugated anti-rabbit and anti-mouse antibodies.

[3] = system: caspase-7; assay: Immunoblotting of caspase-7 in TNF-α-stimulated HaCaT keratinocytes; assay type: cell-based, Human; conditions: HaCaT cells; 10 nM decursin; 100 ng/mL TNF-α, 24 hours; FIG. 5
Protocol: as §1, §2

[4] = system: p38; assay: Expression of p38 in decursin-treated keratinocytes; assay type: cell-based, Human; conditions: TNF-α
[5] = system: CYP-induced alopecia mice; assay: Skin monitoring of hair growth with a digital dermatoscope in CYP-induced alopecia mice; assay type: in vivo, C57BL/6J mice; conditions: topical, all concentrations of decursin (1, 10, 100 μM) or 0.1% DEX, FIG. 1
Protocol: (§3) All animal testing procedures were approved by the Laboratory Animal Care and Use Committee of Kyung Hee University (KHUASP(SE)-13-046). 5-week-old male C57BL/6J mice were purchased from Raonbio Co., Ltd. (Yongin, Korea). All mice were kept in plastic cages at 22±1° C. under 50±5% humidity with 12 hours of light-dark cycles. After 1 week of adaptation, mice were randomly assigned to 6 groups: (1) CTR, normal control group, (2) CYP, cyclophosphamide-induced alopecia group, (3) DEX, dexamethasone (DEX) treated in CYP-induced alopecia mice as positive controls, (4) D1, 1 μM decursin treated in CYP-induced alopecia mice, (5) D10, 10 μM decursin treated in CYP-induced alopecia mice, and (6) D100, 100 μM decursin treated in CYP-induced alopecia mice.
(§4) To synchronize the phases of the hair growth cycle, the dark hairs on the dorsal skin of all mice except the CTR group were shaved on day 0 using a shaving cream. 9 days later, 150 mg/kg of CYP (Sigma-Aldrich, MO, USA) was dissolved in saline and injected one time intraperitoneally into all mice except the CTR group. Injection of CYP induced the stage of hair follicles to turn into dystrophic catagen. From day 9 to day 16, 100 μL of 1, 10 and 100 μM decursin (Sigma-Aldrich) in saline containing 0.1% dimethyl sulfoxide was topically treated onto the shaved dorsal skin once a day. […]

[6] = system: caspase-3; assay: Immunoblotting of caspase-3 in TNF-α-stimulated HaCaT keratinocytes; assay type: cell-based, Human; conditions: HaCaT cells; 10 nM decursin; 100 ng/mL TNF-α, 24 hours; FIG. 5
Protocol: as §1, §2

[7] = system: hair follicles of dorsal skin tissues; assay: Histological analysis (H&E) of dorsal skin hair follicles in CYP-induced alopecia mice; assay type: in vivo, C57BL/6J mice; conditions: topical decursin, FIG. 2
Protocol: as §3, §4

[8] = system: keratinocyte growth factor (KGF); assay: Immunofluorescence assay of KGF+ expression in dorsal skin tissue of CYP-induced alopecia mice; assay type: in vivo, C57BL/6J mice; conditions: CIA mice, FIG. 3
Protocol: as §3
To synchronize the phases of the hair growth cycle, the dark hairs on the dorsal skin of all mice except the CTR group were shaved on day 0 using a shaving cream. 9 days later, 150 mg/kg of CYP (Sigma-Aldrich, MO, USA) was dissolved in saline and injected one time intraperitoneally into all mice except the CTR group. Injection of CYP induced the stage of hair follicles to turn into dystrophic catagen. From day 9 to day 16, 100 μL of 1, 10 and 100 μM decursin (Sigma-Aldrich) in saline containing 0.1% dimethyl sulfoxide was topically treated onto the shaved dorsal skin once a day. As a positive control, 0.1% DEX was administered topically to the shaved area on days 1, 3, 5, 7, and 9 to 16. Physiological saline was treated to the CTR and CYP groups during the experiment. […] on day 17, all mice were sacrificed under anesthesia.
Paraffin tissue sections were hydrated with xylene and ethanol, followed by blocking with 1% bovine serum albumin (BSA). The slides were incubated overnight at 4° C. with primary anti-rabbit keratinocyte growth factor (KGF) antibody. Secondary HRP-conjugated fluorescent antibody was treated onto tissue slides for 1 hour at room temperature.

[9] = system: AKT; assay: Expression of AKT in decursin-treated keratinocytes; assay type: cell-based, Human; conditions: TNF-α
[10] = system: keratinocyte growth factor (KGF); assay: Immunoblotting of KGF protein expression in skin tissues of CYP-induced alopecia mice; assay type: in vivo, C57BL/6J mice; conditions: CIA mice; 100 μM decursin topical; FIG. 4
[11] = system: PI3K; assay: Expression of PI3K in decursin-treated keratinocytes; assay type: cell-based, Human; conditions: TNF-α

With `CC(C)=CC(=O)O[C@H]1Cc2cc3ccc(=O)oc3cc2OC1(C)C` [decursin] the “expression of ERK” value [1] was “suppression”, the “rate of decrease of TNF-α-induced caspase-8 protein level” value [2] was 41.07% and the “rate of decrease of TNF-α-induced caspase-7 protein level” value [3] was 48.27%. For the same compound, the “expression of p38” value [4] was “suppression”, the “hair growth on the dorsal side (dermatoscope), compared to CYP group” value [5] was “hair growth was observed” and the “rate of decrease of TNF-α-induced caspase-3 protein level” value [6] was 30.41%. For the same compound, the “hair follicle cycle stage (histology)” value [7] was “hair follicles were in the anagen”, the “shape of the ampulla of hair follicles, compared to CYP group” value [7] was “normalized” and the “KGF+ expression in the skin tissue (immunofluorescence)” value (shortened to “KGF+ expression in the skin tissue”) ([8]; 1 μM decursin topical) was “increased”. The “KGF+ expression in the skin tissue” value ([8]; 10 μM decursin topical) was “increased”, the “KGF+ expression in the skin tissue” value ([8]; 100 μM decursin topical) was “increased” and the “expression of AKT” value [9] was “suppression”. For the same compound, the “protein expression of KGF in skin tissues” value [10] was “significantly increased” and the “expression of PI3K” value [11] was “suppression”.
